Assay results as given in US11534457B2, “Use of dextran sulfate” (priority 2017, dated 2022).

What was measured:
[1] = biological target: T1, protein-protein interaction between oligomeric amyloid-β and PrP^c (Homo sapiens, UniProt P04156); type: binding
[2] = biological target: T1, protein-protein interaction between oligomeric amyloid-β and PrP^c; conditions: cited from earlier work
[3] = test system: Experimental Autoimmune Encephalomyelitis (EAE); assay: Mouse Experimental Autoimmune Encephalomyelitis (EAE) model, clinical score; type: in vivo, C57B1.6 mice; conditions: 100 ng/dose i.v. every other day from day 18

Q: With dextran sulphate sodium salt [DSSS] as the molecule, how does the “Competable binding (%)” value [1] read?
A: 101 ± 2%

Q: And the Hill coefficient [1]?
A: 1.51 ± 0.06

Q: And the “IC50” value [1]?
A: 0.62 ± 0.07 µg/mL

Q: And the “competition for the protein-protein interaction (in words)” value [1]?
A: competed for the protein-protein interaction between oligomeric amyloid-β and PrP^c in a concentration dependent manner

Q: And the “effective concentrations to compete with the protein-protein interaction (Aimi et al.)” value [2]?
A: in the low μg/ml range

Q: With dextran as the molecule, how does the “competition for the protein-protein interaction (in words)” value [1] read?
A: failed to compete appreciably

B1: HGF: Hepatocyte growth factor (HGF) recombinant mouse (R&D Systems) (protein, UniProt Q08048 33-495; Q08048 496-728, looked up)
Hepatocyte growth factor …: QKKRRNTLHEFKKSAKTTLTKEDPLLKIKTKKVNSADECANRCIRNRGFTFTCKAFVFDKSRKRCYWYPFNSMSSGVKKGFGHEFDLYENKDYIRNCIIGKGGSYKGTVSITKSGIKCQPWNSMIPHEHSFLPSSYRGKDLQENYCRNPRGEEGGPWCFTSNPEVRYEVCDIPQCSEVECMTCNGESYRGPMDHTESGKTCQRWDQQTPHRHKFLPERYPDKGFDDNYCRNPDGKPRPWCYTLDPDTPWEYCAIKTCAHSAVNETDVPMETTECIQGQGEGYRGTSNTIWNGIPCQRWDSQYPHKHDITPENFKCKDLRENYCRNPDGAESPWCFTTDPNIRVGYCSQIPKCDVSSGQDCYRGNGKNYMGNLSKTRSGLTCSMWDKNMEDLHRHIFWEPDASKLNKNYCRNPDDDAHGPWCYTGNPLIPWDYCPISRCEGDTTPTIVNLDHPVISCAKTKQLR
Hepatocyte growth factor beta …: VVNGIPTQTTVGWMVSLKYRNKHICGGSLIKESWVLTARQCFPARNKDLKDYEAWLGIHDVHERGEEKRKQILNISQLVYGPEGSDLVLLKLARPAILDNFVSTIDLPSYGCTIPEKTTCSIYGWGYTGLINADGLLRVAHLYIMGNEKCSQHHQGKVTLNESELCAGAEKIGSGPCEGDYGGPLICEQHKMRMVLGVIVPGRGCAIPNRPGIFVRVAYYAKWIHKVILTYKL
Q: Which “mean EAE score vs vehicle” value [3] does the source give for B1 here?
A: did not result in any significant difference
